{"source": "patent US20230416196A1", "about": "“DIMER OF BIGUANIDINES AND THEIR THERAPEUTIC USES” (INSTITUT CURIE, priority 2020, published 2023)", "tested_on": "inflammatory genes in activated MDM", "assay": "RNA-seq gene expression in activated MDM", "type": "cell-based, human", "settings": "LCC-12 10 μM; FIG. 4A-C", "protocol": "Cell culture. Peripheral blood samples were collected from distinct healthy donors (Etablissement Français du Sang). Pan monocytes were isolated by negative magnetic sorting using microbeads according to the manufacturer's instructions (Miltenyi Biotec, 130-096-537), and cultured in RPMI 1640 supplemented with glutamine (Thermo Fisher Scientific, 61870010), 10% fetal bovine serum and exposed to granulocyte-macrophage colony-stimulating factor (GM-CSF, Miltenyi Biotec, 130-093-866, 100 ng/mL) to induce differentiation into macrophages (MDM). […]\nRNA-seq. […] Sequencing was carried out on a NovaSeq 6000 instrument from Illumina based on a 2×100 cycle mode (paired-end reads, 100 bases). Raw sequencing reads were first checked for quality with Fastqc (0.11.8) and trimmed for adapter sequences with the trimGalore (0.6.2) software. Trimmed reads were then aligned on the human hg38 reference genome using the STAR mapper (2.6.1b), up to the generation of a raw count table per gene (GENCODE annotation v29). […] Raw data from (Fernandes et al., 2016, 7, e00027-16; Gongalves et al., 2020, Nat. Commun. 11, 2282) were downloaded from the NCBI Short Read Archive under records PRJNA528433 and PRJNA290995 and processed as described above. […] Differential expression was assessed with the limma voom framework (v 3.44.3) (Ritchie et al., 2015, Nucleic Acids Res. 43, e47). […]"}
{"smiles": "N=C(N)NC(=N)NCCCCCCCCCCCCNC(=N)NC(=N)N", "note": "[LCC-12, lipophilic copper clamp C12]", "values": [{"measurement": "expression of inflammatory genes compared to activated MDM", "result": "reduced expression of a subset of inflammatory genes"}]}
